Key:
[1] = target: T1, Human Neuropeptide Y2 Receptor (Homo sapiens, UniProt P49146); experiment: Radioligand binding competition assay (RLB); details: Table 3, 125I-PYY(1-36) competition; read-out: Ki
T1 construct: purchased CHEMICON HTS066M
T1 sequence (P49146 1-381): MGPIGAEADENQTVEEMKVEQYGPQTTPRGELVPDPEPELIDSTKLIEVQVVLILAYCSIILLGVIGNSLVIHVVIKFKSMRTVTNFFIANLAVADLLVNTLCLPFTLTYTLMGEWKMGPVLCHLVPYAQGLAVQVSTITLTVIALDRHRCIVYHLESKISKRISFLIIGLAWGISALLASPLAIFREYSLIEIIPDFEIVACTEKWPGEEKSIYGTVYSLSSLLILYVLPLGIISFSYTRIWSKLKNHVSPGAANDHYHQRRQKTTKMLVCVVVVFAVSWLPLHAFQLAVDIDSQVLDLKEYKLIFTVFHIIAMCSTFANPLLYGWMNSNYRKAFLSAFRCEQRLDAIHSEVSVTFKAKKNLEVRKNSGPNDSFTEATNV
In short: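 Peptides were serially diluted from 1 mM DMSO stocks and competed for radioligand binding to receptor membranes (0.5 μg/well) over 2 h at room temperature, pH 7.4 HEPES buffer. Bound radioactivity on filters was counted by scintillation, and IC50 was derived by nonlinear regression.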

Solubility determination = details: for Sol6: pH 6; for Sol7: pH 7
In short: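 Shake-flask style: 10 mg/ml peptide (TFA salt), 0.1 M sodium diphosphate pH 6.4/7.0, 600 rpm, 2 h, RT; filter; dilute 1 mg/ml in 50% MeCN; RP-UPLC, 0–100% B over 2 min, 50 °C. Solubility = sample/control area ratio. Final pH recorded.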

Ki [1]	Sol6 (Solubility determination)	Sol7 (Solubility determination)	SMILES
2.07 nM	8.3 mg/mL	9.6 mg/mL	CC(C)CC(=O)N[C@@H](C)C(=O)N1CCC[C@H]1C(=O)N[C@@H](C)C(=O)N[C@@H](CCCCNC(=O)CCCCCNC(=O)CC[C@H](NC(=O)CCCCCCCCCCCCCCCCC(=O)O)C(=O)O)C(=O)N1CCC[C@H]1C(=O)N[C@@H](CCC(=O)O)C(=O)N[C@@H](CCC(=O)O)C(=O)N[C@@H](CC(=O)O)C(=O)N[C@@H](C)C(=O)N[C@H](C(=O)N1CCC[C@H]1C(=O)N[C@@H](CCC(=O)O)C(=O)N[C@@H](CCC(=O)O)C(=O)N[C@@H](C)C(=O)N[C@@H](CCC(N)=O)C(=O)N[C@@H](CCCNC(=N)N)C(=O)N[C@@H](Cc1ccc(O)cc1)C(=O)N[C@@H](Cc1ccc(O)cc1)C(=O)N[C@H](C(=O)N[C@@H](CO)C(=O)N[C@@H](CC(C)C)C(=O)N[C@@H](CCCNC(=N)N)C(=O)N[C@@H](Cc1c[nH]cn1)C(=O)N[C@@H](Cc1ccc(O)cc1)C(=O)N[C@@H](Cc1ccc(O)cc1)C(=O)N[C@@H](CC(N)=O)C(=O)N[C@@H](Cc1c[nH]c2ccccc12)C(=O)N[C@@H](CC(C)C)C(=O)N[C@H](C(=O)N[C@@H](CCCNC(=N)N)C(=O)N[C@@H](CCC(N)=O)C(=O)N[C@@H](CCCNC(=N)N)C(=O)N[C@@H](Cc1ccc(O)cc1)C(N)=O)[C@@H](C)O)C(C)C)[C@@H](C)O [Compound 57, N{alpha-4}-(3-methylbutanoyl)-N{epsilon-7}-(6-[(4S)-4-carboxy-4-(17-carboxyheptadecanamido)butanamido]hexanoyl)-[4A,6A,7K,9E,13T,17A,18Q,22V,28Y,30W,31L]-hPYY(4-36)]
3.46 nM	8.6 mg/mL	8.8 mg/mL	CC(C)CC(=O)N[C@@H](C)C(=O)N1CCC[C@H]1C(=O)N[C@@H](CCC(=O)O)C(=O)N[C@@H](CCCCNC(=O)CCCCCNC(=O)CC[C@H](NC(=O)CCCCCCCCCCCCCCCCC(=O)O)C(=O)O)C(=O)N1CCC[C@H]1C(=O)N[C@@H](CCC(=O)O)C(=O)N[C@@H](CCC(=O)O)C(=O)N[C@@H](CC(=O)O)C(=O)N[C@@H](C)C(=O)N[C@H](C(=O)N1CCC[C@H]1C(=O)N[C@@H](CCC(=O)O)C(=O)N[C@@H](CCC(=O)O)C(=O)N[C@H](C(=O)N[C@@H](CCC(N)=O)C(=O)N[C@@H](CCCNC(=N)N)C(=O)N[C@@H](Cc1ccc(O)cc1)C(=O)N[C@@H](Cc1ccc(O)cc1)C(=O)N[C@H](C(=O)N[C@@H](CO)C(=O)N[C@@H](CC(C)C)C(=O)N[C@@H](CCCNC(=N)N)C(=O)N[C@@H](Cc1c[nH]cn1)C(=O)N[C@@H](Cc1ccc(O)cc1)C(=O)N[C@@H](Cc1ccc(O)cc1)C(=O)N[C@@H](CC(N)=O)C(=O)N[C@@H](Cc1c[nH]c2ccccc12)C(=O)N[C@@H](CC(C)C)C(=O)N[C@H](C(=O)N[C@@H](CCCNC(=N)N)C(=O)N[C@@H](CCC(N)=O)C(=O)N[C@@H](CCCNC(=N)N)C(=O)N[C@@H](Cc1ccc(O)cc1)C(N)=O)[C@@H](C)O)C(C)C)C(C)C)[C@@H](C)O [Compound 58, N{alpha-4}-(3-methylbutanoyl)-N{epsilon-7}-(6-[(4S)-4-carboxy-4-(17-carboxyheptadecanamido)butanamido]hexanoyl)-[4A,7K,9E,13T,17V,18Q,22V,28Y,30W,31L]-hPYY(4-36)]
1.93 nM	9.7 mg/mL	9.6 mg/mL	CC(C)CC(=O)N[C@@H](C)C(=O)N1CCC[C@H]1C(=O)N[C@@H](C)C(=O)N[C@@H](CCCCNC(=O)CCCCCNC(=O)CC[C@H](NC(=O)CCCCCCCCCCCCCCCCC(=O)O)C(=O)O)C(=O)N1CCC[C@H]1C(=O)N[C@@H](CCC(=O)O)C(=O)N[C@@H](CCC(=O)O)C(=O)N[C@@H](CC(=O)O)C(=O)N[C@@H](C)C(=O)N[C@@H](CO)C(=O)N1CCC[C@H]1C(=O)N[C@@H](CCC(=O)O)C(=O)N[C@@H](CCC(=O)O)C(=O)N[C@@H](CC(C)C)C(=O)N[C@@H](CCC(N)=O)C(=O)N[C@@H](CCCNC(=N)N)C(=O)N[C@@H](Cc1ccc(O)cc1)C(=O)N[C@@H](Cc1ccc(O)cc1)C(=O)N[C@H](C(=O)N[C@@H](CCC(N)=O)C(=O)N[C@@H](CC(C)C)C(=O)N[C@@H](CCCNC(=N)N)C(=O)N[C@@H](Cc1c[nH]cn1)C(=O)N[C@@H](Cc1ccc(O)cc1)C(=O)N[C@@H](Cc1ccc(O)cc1)C(=O)N[C@@H](CC(N)=O)C(=O)N[C@@H](Cc1c[nH]c2ccccc12)C(=O)N[C@@H](CC(C)C)C(=O)N[C@H](C(=O)N[C@@H](CCCNC(=N)N)C(=O)N[C@@H](CCC(N)=O)C(=O)N[C@@H](CCCNC(=N)N)C(=O)N[C@@H](Cc1ccc(O)cc1)C(N)=O)[C@@H](C)O)C(C)C [Compound 59, N{alpha-4}-(3-methylbutanoyl)-N{epsilon-7}-(6-[(4S)-4-carboxy-4-(17-carboxyheptadecanamido)butanamido]hexanoyl)-[4A,6A,7K,9E,18Q,22V,23Q,28Y,30W,31L]-hPYY(4-36)]
6.04 nM	>10.0 mg/mL	10.0 mg/mL	CC(C)CC(=O)N[C@@H](C)C(=O)N1CCC[C@H]1C(=O)N[C@@H](CCC(=O)O)C(=O)N[C@@H](CCCCNC(=O)CCCCCNC(=O)CC[C@H](NC(=O)CCCCCCCCCCCCCCCCC(=O)O)C(=O)O)C(=O)N1CCC[C@H]1C(=O)N[C@@H](CCC(=O)O)C(=O)N[C@@H](CCC(=O)O)C(=O)N[C@@H](CC(=O)O)C(=O)N[C@@H](C)C(=O)N[C@@H](CO)C(=O)N1CCC[C@H]1C(=O)N[C@@H](CCC(=O)O)C(=O)N[C@@H](CCC(=O)O)C(=O)N[C@@H](CC(C)C)C(=O)N[C@@H](CCC(N)=O)C(=O)N[C@@H](CCCNC(=N)N)C(=O)N[C@@H](Cc1ccc(O)cc1)C(=O)N[C@@H](Cc1ccc(O)cc1)C(=O)N[C@H](C(=O)N[C@@H](CO)C(=O)N[C@@H](CC(C)C)C(=O)N[C@@H](CCCNC(=N)N)C(=O)N[C@@H](Cc1c[nH]cn1)C(=O)N[C@@H](Cc1ccc(O)cc1)C(=O)N[C@@H](Cc1ccc(O)cc1)C(=O)N[C@@H](CCC(N)=O)C(=O)N[C@@H](Cc1c[nH]c2ccccc12)C(=O)N[C@@H](CC(C)C)C(=O)N[C@H](C(=O)N[C@@H](CCCNC(=N)N)C(=O)N[C@@H](CCC(N)=O)C(=O)N[C@@H](CCCNC(=N)N)C(=O)N[C@@H](Cc1ccc(O)cc1)C(N)=O)[C@@H](C)O)C(C)C [Compound 60, N{alpha-4}-(3-methylbutanoyl)-N{epsilon-7}-(6-[(4S)-4-carboxy-4-(17-carboxyheptadecanamido)butanamido]hexanoyl)-[4A,7K,9E,18Q,22V,28Y,29Q,30W,31L]-hPYY(4-36)]

From US12391737B2, “Soluble NPY2 receptor agonists” (Boehringer Ingelheim International GmbH, priority 2020, dated 2025)
